These results are taken from patent publication US20260364184A1, “COMPOUND BASED ON OXOISOINDOLINYL-SUBSTITUTED TETRAHYDROPYRIMIDINE-DIONE AND USE THEREOF” (GLUETACS THERAPEUTICS (SHANGHAI) CO., LTD., priority 2023, published 2026).

What all share (type): cell-based
Details in all cases: hPBMC Cell; 24 hours

In one assay the target is T1, IKZF1 (Homo sapiens, UniProt Q13422+Q96SW2).
T1 construct: expression of target proteins in cells; endogenous in cells
Kind of assay: Western blot degradation of IKZF1. As for the experimental part:
(§1) Conventional Western blot assay was performed to evaluate the effects of the compounds of the present disclosure on the expression of target proteins in cells.
(§2) (1) Cell Seeding and Protein Harvesting: The selected cells were processed according to the cell seeding procedure and protein harvesting procedure in Table II-2.
(§3) (2) To the collected supernatant, 5×SDS sample loading buffer was added, followed by denaturation at 95 °C for 5 minutes. The denatured samples were then separated by SDS-PAGE electrophoresis on a polyacrylamide gel. Proteins were transferred to a nitrocellulose membrane (0.45 μm NC membrane), blocked with blocking buffer at room temperature for 1 hour, and subjected to antibody incubation and development procedures according to the antibody manufacturer's instructions (Cell Signaling Technology).
(§4) Half-Maximal Degradation Concentration value (the drug concentration required for degrading proteins by 50%, abbreviated as DC50) reads method: comparing the grayscale values of Western blot bands from drug-treated samples with those from blank DMSO-treated controls, and identifying the drug concentration range at which the grayscale value is half that of the DMSO-treated control bands.
(§5) DC50 values can be calculated using ImageJ software to measure grayscale values of Western blot bands from drug-treated samples. The concentration-response curve is fitted to estimate the drug concentration corresponding to half the grayscale value.
(§6) Target protein remaining (%) refers to the percentage of target protein remaining in cells after treatment with protein degrader compounds.
(§7) Calculation method for target protein remaining (%): Use ImageJ software to measure grayscale values of Western blot bands from drug (protein degrader)-treated samples. The grayscale value of drug-treated bands is divided by that of internal control protein bands, and the resulting quotient is normalized to obtain the relative percentage of remaining target protein after protein degrader treatment.
(§8) Target protein degradation rate (%)=1−target protein remaining (%).
Background: In western blotting, separated proteins are transferred to a membrane and probed.

In another assay the target is T2, WEE1 (Homo sapiens, UniProt P30291+Q96SW2).
T2 construct: expression of target proteins in cells; endogenous in cells
As to the kind of experiment: Western blot degradation of WEE1. As for the experimental part:
as §1, §2, §3, §4, §5, §6, §7, §8

Another assay addresses T3, GSPT1 (Homo sapiens, UniProt P15170+Q96SW2).
T3 construct: expression of target proteins in cells; endogenous in cells
As to the kind of experiment: Western blot degradation of GSPT1. As for the experimental part:
as §1, §2, §3, §4, §5, §6, §7, §8

Another assay addresses T4, IKZF2 (Homo sapiens, UniProt Q96SW2+Q9UKS7).
T4 construct: expression of target proteins in cells; endogenous in cells
As to the kind of experiment: Western blot degradation of IKZF2. As for the experimental part: as §1, §2, §3, §4, §5, §6, §7, §8

In the next assay the target is T5, IKZF3 (Homo sapiens, UniProt Q96SW2+Q9UKT9).
T5 construct: expression of target proteins in cells; endogenous in cells
As to the kind of experiment: Western blot degradation of IKZF3. As for the experimental part: as §1, §2, §3, §4, §5, §6, §7, §8

In the next assay the target is T6, CK1α (Homo sapiens, UniProt P48729+Q96SW2).
T6 construct: expression of target proteins in cells; endogenous in cells
As to the kind of experiment: Western blot degradation of CK1α. As for the experimental part:
as §1, §2, §3, §4, §5, §6, §7, §8

T1 sequence (Q13422 whole entry): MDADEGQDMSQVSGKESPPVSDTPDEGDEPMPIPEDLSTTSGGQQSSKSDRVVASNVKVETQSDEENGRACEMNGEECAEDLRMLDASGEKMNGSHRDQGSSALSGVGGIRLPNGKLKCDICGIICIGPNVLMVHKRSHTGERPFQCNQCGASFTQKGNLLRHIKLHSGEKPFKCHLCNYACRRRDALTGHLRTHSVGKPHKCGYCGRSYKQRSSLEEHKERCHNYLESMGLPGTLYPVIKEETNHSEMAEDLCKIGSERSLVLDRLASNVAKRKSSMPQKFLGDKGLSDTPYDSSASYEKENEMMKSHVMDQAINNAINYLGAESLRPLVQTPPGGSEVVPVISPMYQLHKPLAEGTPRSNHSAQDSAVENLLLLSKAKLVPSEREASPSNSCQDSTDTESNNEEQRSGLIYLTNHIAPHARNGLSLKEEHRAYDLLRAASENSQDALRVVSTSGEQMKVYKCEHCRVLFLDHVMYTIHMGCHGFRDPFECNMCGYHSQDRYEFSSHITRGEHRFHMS
T1 sequence (Q96SW2 whole entry): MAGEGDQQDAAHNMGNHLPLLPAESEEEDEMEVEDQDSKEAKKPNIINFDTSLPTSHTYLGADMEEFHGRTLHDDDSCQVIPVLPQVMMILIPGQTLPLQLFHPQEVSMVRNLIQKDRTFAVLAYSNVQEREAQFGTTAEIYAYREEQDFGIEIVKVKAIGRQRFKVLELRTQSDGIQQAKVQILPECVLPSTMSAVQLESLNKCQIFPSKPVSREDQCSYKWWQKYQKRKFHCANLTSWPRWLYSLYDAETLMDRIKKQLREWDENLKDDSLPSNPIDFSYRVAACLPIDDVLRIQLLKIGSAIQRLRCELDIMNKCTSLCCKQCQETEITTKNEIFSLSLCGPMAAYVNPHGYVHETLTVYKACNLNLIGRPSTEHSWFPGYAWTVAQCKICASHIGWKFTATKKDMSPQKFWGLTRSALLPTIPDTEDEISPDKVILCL
T1 sequence (Q16531 whole entry partner): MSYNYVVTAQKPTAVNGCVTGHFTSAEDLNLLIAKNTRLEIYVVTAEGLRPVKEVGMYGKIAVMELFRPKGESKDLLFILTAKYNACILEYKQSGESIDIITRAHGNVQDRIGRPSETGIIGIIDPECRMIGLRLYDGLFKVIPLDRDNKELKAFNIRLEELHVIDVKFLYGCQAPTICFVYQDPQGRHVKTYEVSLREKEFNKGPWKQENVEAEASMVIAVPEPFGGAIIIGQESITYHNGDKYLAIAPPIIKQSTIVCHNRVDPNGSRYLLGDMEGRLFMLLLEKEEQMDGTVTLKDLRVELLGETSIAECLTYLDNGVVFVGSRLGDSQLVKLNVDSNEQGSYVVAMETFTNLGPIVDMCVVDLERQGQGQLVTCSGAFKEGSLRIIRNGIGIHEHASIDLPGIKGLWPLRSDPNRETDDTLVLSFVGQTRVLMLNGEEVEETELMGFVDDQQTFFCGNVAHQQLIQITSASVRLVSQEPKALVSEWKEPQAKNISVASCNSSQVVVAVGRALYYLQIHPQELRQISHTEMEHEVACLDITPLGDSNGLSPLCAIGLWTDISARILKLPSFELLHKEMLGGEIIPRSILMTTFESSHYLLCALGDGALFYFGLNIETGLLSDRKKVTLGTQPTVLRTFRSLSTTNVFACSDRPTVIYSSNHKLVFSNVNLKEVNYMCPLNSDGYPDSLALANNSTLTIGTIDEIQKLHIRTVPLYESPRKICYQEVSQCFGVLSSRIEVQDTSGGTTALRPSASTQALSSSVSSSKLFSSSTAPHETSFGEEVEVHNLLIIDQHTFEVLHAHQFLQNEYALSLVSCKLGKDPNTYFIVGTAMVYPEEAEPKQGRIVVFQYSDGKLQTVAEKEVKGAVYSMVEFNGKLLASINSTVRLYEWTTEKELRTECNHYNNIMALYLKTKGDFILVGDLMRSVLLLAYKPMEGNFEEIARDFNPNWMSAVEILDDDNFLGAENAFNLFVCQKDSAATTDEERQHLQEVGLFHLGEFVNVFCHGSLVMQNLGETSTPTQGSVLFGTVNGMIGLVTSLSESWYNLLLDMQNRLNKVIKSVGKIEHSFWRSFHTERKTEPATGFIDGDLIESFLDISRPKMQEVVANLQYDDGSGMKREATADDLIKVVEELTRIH
T2 sequence (P30291 whole entry): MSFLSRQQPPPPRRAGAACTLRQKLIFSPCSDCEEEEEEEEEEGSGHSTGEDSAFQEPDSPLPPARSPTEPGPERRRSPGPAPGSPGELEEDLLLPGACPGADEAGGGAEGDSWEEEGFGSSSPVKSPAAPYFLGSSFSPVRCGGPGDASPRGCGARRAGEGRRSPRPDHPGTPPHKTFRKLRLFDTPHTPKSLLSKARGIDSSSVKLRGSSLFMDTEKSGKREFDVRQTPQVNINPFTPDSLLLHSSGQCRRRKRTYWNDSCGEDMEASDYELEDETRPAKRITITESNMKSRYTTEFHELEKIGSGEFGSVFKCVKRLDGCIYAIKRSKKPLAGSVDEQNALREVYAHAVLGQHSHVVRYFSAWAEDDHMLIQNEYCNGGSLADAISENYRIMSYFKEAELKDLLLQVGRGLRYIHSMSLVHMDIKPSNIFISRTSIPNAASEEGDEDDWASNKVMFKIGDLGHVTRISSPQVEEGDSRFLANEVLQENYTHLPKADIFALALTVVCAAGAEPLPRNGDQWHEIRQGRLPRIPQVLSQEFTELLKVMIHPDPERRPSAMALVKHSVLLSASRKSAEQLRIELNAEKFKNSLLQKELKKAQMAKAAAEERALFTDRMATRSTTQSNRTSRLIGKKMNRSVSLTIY
T2 sequence (Q96SW2 whole entry): as the sequence (Q96SW2 whole entry) above
T2 sequence (Q16531 whole entry partner): as the sequence (Q16531 whole entry partner) above
T6 sequence (P48729 whole entry): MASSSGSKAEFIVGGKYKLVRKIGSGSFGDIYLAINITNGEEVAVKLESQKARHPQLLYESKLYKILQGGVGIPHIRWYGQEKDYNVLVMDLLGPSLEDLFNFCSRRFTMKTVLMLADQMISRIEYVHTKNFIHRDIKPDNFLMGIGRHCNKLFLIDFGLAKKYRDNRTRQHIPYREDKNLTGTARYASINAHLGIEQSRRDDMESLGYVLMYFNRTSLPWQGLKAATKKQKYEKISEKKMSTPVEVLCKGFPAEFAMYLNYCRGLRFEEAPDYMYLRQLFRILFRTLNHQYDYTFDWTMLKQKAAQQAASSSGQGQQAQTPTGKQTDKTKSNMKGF
T6 sequence (Q96SW2 whole entry): as the sequence (Q96SW2 whole entry) above
T6 sequence (Q16531 whole entry partner): as the sequence (Q16531 whole entry partner) above
T4 sequence (Q9UKS7 whole entry): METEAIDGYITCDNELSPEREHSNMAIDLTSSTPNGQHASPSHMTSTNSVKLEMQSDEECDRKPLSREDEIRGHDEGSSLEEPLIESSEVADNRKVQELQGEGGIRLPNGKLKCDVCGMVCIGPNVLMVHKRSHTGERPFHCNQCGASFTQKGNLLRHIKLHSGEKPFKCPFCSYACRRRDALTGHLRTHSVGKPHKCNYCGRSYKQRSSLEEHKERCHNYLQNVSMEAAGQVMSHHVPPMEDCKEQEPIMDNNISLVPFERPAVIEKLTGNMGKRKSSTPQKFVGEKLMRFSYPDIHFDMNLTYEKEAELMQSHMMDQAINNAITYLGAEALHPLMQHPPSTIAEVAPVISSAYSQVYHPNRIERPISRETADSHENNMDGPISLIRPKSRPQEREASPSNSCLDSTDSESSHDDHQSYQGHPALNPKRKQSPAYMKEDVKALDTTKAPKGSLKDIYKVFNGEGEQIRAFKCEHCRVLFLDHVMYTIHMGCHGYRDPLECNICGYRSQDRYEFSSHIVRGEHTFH
T4 sequence (Q96SW2 whole entry): as the sequence (Q96SW2 whole entry) above
T4 sequence (Q16531 whole entry partner): as the sequence (Q16531 whole entry partner) above
T5 sequence (Q9UKT9 whole entry): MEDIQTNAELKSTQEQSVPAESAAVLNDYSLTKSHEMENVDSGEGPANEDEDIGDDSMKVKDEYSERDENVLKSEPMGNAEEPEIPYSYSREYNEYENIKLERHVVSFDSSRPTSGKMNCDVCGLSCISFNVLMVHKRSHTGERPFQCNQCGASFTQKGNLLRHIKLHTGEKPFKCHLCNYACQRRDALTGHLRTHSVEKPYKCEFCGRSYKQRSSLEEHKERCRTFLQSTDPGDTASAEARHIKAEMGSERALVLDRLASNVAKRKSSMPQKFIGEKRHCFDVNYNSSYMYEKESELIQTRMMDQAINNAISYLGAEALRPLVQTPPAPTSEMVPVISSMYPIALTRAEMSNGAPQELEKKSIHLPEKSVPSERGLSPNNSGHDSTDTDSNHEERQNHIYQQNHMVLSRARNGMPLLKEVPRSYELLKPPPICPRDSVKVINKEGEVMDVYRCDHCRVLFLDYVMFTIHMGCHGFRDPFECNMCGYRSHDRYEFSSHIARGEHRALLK
T5 sequence (Q96SW2 whole entry): as the sequence (Q96SW2 whole entry) above
T5 sequence (Q16531 whole entry partner): as the sequence (Q16531 whole entry partner) above

For `O=C1CCN(N2C(=O)c3ccc(Br)cc3C2=O)C(=O)N1` [GT-04511, 5-bromo-2-(2,4-dioxotetrahydropyrimidin-1(2H)-yl)isoindoline-1,3-dione], at IKZF1, the “Degradation of substrate protein IKZF1 (substrate protein remaining %)” value was “B (80%<substrate protein remaining %≤100%)”. Besides, the “Degradation of substrate protein WEE1 (substrate protein remaining %)” value at WEE1 was “B (80%<substrate protein remaining %≤100%)”. Also, the “Degradation of substrate protein GSPT1 (substrate protein remaining %)” value at GSPT1 is “A (0%≤substrate protein remaining %≤80%)”. For the same compound, the “Degradation of substrate protein IKZF2 (substrate protein remaining %)” value at IKZF2 is reported as “B (80%<substrate protein remaining %≤100%)”. For the same compound, the “Degradation of substrate protein IKZF3 (substrate protein remaining %)” value at IKZF3 is given as “B (80%<substrate protein remaining %≤100%)”. Also, the “Degradation of substrate protein CK1α (substrate protein remaining %)” value at CK1α was “B (80%<substrate protein remaining %≤100%)”.
Turning to `O=C1CCN(N2C(=O)c3ccc(CO)cc3C2=O)C(=O)N1` [GT-04536, 2-(2,4-dioxotetrahydropyrimidin-1(2H)-yl)-5-(hydroxymethyl)isoindoline-1,3-dione], on IKZF1, the “Degradation of substrate protein IKZF1 (substrate protein remaining %)” value is listed as “B (80%<substrate protein remaining %≤100%)”. The “Degradation of substrate protein WEE1 (substrate protein remaining %)” value on WEE1 is reported as “B (80%<substrate protein remaining %≤100%)”. Besides, the “Degradation of substrate protein GSPT1 (substrate protein remaining %)” value at GSPT1 is “A (0%≤substrate protein remaining %≤80%)”. At IKZF2, the “Degradation of substrate protein IKZF2 (substrate protein remaining %)” value is recorded as “B (80%<substrate protein remaining %≤100%)”. In addition, the “Degradation of substrate protein IKZF3 (substrate protein remaining %)” value on IKZF3 was “B (80%<substrate protein remaining %≤100%)”. Besides, at CK1α, the “Degradation of substrate protein CK1α (substrate protein remaining %)” value is reported as “B (80%<substrate protein remaining %≤100%)”.
For `O=C1CCN(N2C(=O)c3ccc(N4CCC(N5CCNCC5)C(F)(F)C4)cc3C2=O)C(=O)N1` (stereo not drawn) [GT-04990, 5-(3,3-difluoro-4-(piperazin-1-yl)piperidin-1-yl)-2-(2,4-dioxotetrahydropyrimidin-1(2H)-yl)isoindoline-1,3-dione], the “Degradation of substrate protein IKZF1 (substrate protein remaining %)” value on IKZF1 was “B (80%<substrate protein remaining %≤100%)”. For the same compound, the “Degradation of substrate protein WEE1 (substrate protein remaining %)” value at WEE1 was “A (0%≤substrate protein remaining %≤80%)”. Moreover, the “Degradation of substrate protein GSPT1 (substrate protein remaining %)” value at GSPT1 is on record as “A (0%≤substrate protein remaining %≤80%)”. In addition, the “Degradation of substrate protein IKZF2 (substrate protein remaining %)” value on IKZF2 is listed as “B (80%<substrate protein remaining %≤100%)”. Moreover, the “Degradation of substrate protein IKZF3 (substrate protein remaining %)” value at IKZF3 was “B (80%<substrate protein remaining %≤100%)”. Besides, the “Degradation of substrate protein CK1α (substrate protein remaining %)” value at CK1α was “B (80%<substrate protein remaining %≤100%)”.
For the compound `O=C1CCN(N2Cc3cc(CO)ccc3C2=O)C(=O)N1` [GT-05567, 1-(5-(hydroxymethyl)-1-oxoisoindolin-2-yl)dihydropyrimidine-2,4(1H, 3H)-dione], on IKZF1, the “Degradation of substrate protein IKZF1 (substrate protein remaining %)” value is “A (0%≤substrate protein remaining %≤80%)”. For the same compound, at WEE1, the “Degradation of substrate protein WEE1 (substrate protein remaining %)” value is given as “A (0%≤substrate protein remaining %≤80%)”. For the same compound, the “Degradation of substrate protein GSPT1 (substrate protein remaining %)” value on GSPT1 is listed as “A (0%≤substrate protein remaining %≤80%)”. Also, the “Degradation of substrate protein IKZF2 (substrate protein remaining %)” value on IKZF2 is given as “B (80%<substrate protein remaining %≤100%)”. In addition, at IKZF3, the “Degradation of substrate protein IKZF3 (substrate protein remaining %)” value is “A (0%≤substrate protein remaining %≤80%)”. On CK1α, the “Degradation of substrate protein CK1α (substrate protein remaining %)” value is listed as “A (0%≤substrate protein remaining %≤80%)”.
Regarding `O=C1CCN(N2Cc3c(O)cccc3C2=O)C(=O)N1` [GT-05570, 1-(4-hydroxy-1-oxoisoindolin-2-yl)dihydropyrimidine-2,4(1H, 3H)-dione], the “Degradation of substrate protein IKZF1 (substrate protein remaining %)” value on IKZF1 is on record as “A (0%≤substrate protein remaining %≤80%)”. The “Degradation of substrate protein WEE1 (substrate protein remaining %)” value on WEE1 is reported as “A (0%≤substrate protein remaining %≤80%)”. Moreover, at GSPT1, the “Degradation of substrate protein GSPT1 (substrate protein remaining %)” value is on record as “A (0%≤substrate protein remaining %≤80%)”. The “Degradation of substrate protein IKZF2 (substrate protein remaining %)” value on IKZF2 is reported as “A (0%≤substrate protein remaining %≤80%)”. Moreover, the “Degradation of substrate protein IKZF3 (substrate protein remaining %)” value at IKZF3 is “A (0%≤substrate protein remaining %≤80%)”. At CK1α, the “Degradation of substrate protein CK1α (substrate protein remaining %)” value is reported as “A (0%≤substrate protein remaining %≤80%)”.
Regarding `O=C1CCN(N2C(=O)c3ccc(F)cc3C2=O)C(=O)N1` [GT-05575, 2-(2,4-dioxotetrahydropyrimidin-1(2H)-yl)-5-fluoroisoindoline-1,3-dione], at IKZF1, the “Degradation of substrate protein IKZF1 (substrate protein remaining %)” value was “B (80%<substrate protein remaining %≤100%)”. For the same compound, the “Degradation of substrate protein WEE1 (substrate protein remaining %)” value on WEE1 is “A (0%≤substrate protein remaining %≤80%)”. Besides, the “Degradation of substrate protein GSPT1 (substrate protein remaining %)” value on GSPT1 was “A (0%≤substrate protein remaining %≤80%)”. Besides, on IKZF2, the “Degradation of substrate protein IKZF2 (substrate protein remaining %)” value is reported as “A (0%≤substrate protein remaining %≤80%)”. At IKZF3, the “Degradation of substrate protein IKZF3 (substrate protein remaining %)” value is listed as “A (0%≤substrate protein remaining %≤80%)”. In addition, the “Degradation of substrate protein CK1α (substrate protein remaining %)” value on CK1α is reported as “A (0%≤substrate protein remaining %≤80%)”.
As to `O=C1CCN(N2C(=O)c3cccc(F)c3C2=O)C(=O)N1` [GT-05576, 2-(2,4-dioxotetrahydropyrimidin-1(2H)-yl)-4-fluoroisoindoline-1,3-dione], on IKZF1, the “Degradation of substrate protein IKZF1 (substrate protein remaining %)” value is “B (80%<substrate protein remaining %≤100%)”. Besides, the “Degradation of substrate protein WEE1 (substrate protein remaining %)” value on WEE1 was “A (0%≤substrate protein remaining %≤80%)”. Moreover, the “Degradation of substrate protein GSPT1 (substrate protein remaining %)” value at GSPT1 is “A (0%≤substrate protein remaining %≤80%)”. Further, the “Degradation of substrate protein IKZF2 (substrate protein remaining %)” value at IKZF2 is reported as “A (0%≤substrate protein remaining %≤80%)”. Moreover, the “Degradation of substrate protein IKZF3 (substrate protein remaining %)” value at IKZF3 is recorded as “A (0%≤substrate protein remaining %≤80%)”. Besides, the “Degradation of substrate protein CK1α (substrate protein remaining %)” value on CK1α is recorded as “A (0%≤substrate protein remaining %≤80%)”.
For the compound `O=CC1CCN(c2ccc3c(c2)C(=O)N(N2CCC(=O)NC2=O)C3=O)CC1` [GT-05580, 1-(2-(2,4-dioxotetrahydropyrimidin-1(2H)-yl)-1,3-dioxoisoindolin-5-yl)piperidine-4-carbaldehyde], the “Degradation of substrate protein IKZF1 (substrate protein remaining %)” value at IKZF1 is reported as “B (80%<substrate protein remaining %≤100%)”. Also, the “Degradation of substrate protein WEE1 (substrate protein remaining %)” value at WEE1 is on record as “A (0%≤substrate protein remaining %≤80%)”. Besides, the “Degradation of substrate protein GSPT1 (substrate protein remaining %)” value on GSPT1 is “A (0%≤substrate protein remaining %≤80%)”. The “Degradation of substrate protein IKZF2 (substrate protein remaining %)” value at IKZF2 is “A (0%≤substrate protein remaining %≤80%)”. In addition, the “Degradation of substrate protein IKZF3 (substrate protein remaining %)” value on IKZF3 is given as “A (0%≤substrate protein remaining %≤80%)”. Also, the “Degradation of substrate protein CK1α (substrate protein remaining %)” value at CK1α is “A (0%≤substrate protein remaining %≤80%)”.
As to `O=C1CCN(N2C(=O)c3ccc(N4CCNCC4)cc3C2=O)C(=O)N1` [GT-05581, 2-(2,4-dioxotetrahydropyrimidin-1(2H)-yl)-5-(piperazin-1-yl)isoindoline-1,3-dione], on IKZF1, the “Degradation of substrate protein IKZF1 (substrate protein remaining %)” value is reported as “B (80%<substrate protein remaining %≤100%)”. At WEE1, the “Degradation of substrate protein WEE1 (substrate protein remaining %)” value is reported as “A (0%≤substrate protein remaining %≤80%)”. The “Degradation of substrate protein GSPT1 (substrate protein remaining %)” value at GSPT1 is “A (0%≤substrate protein remaining %≤80%)”. The “Degradation of substrate protein IKZF2 (substrate protein remaining %)” value on IKZF2 is reported as “B (80%<substrate protein remaining %≤100%)”. For the same compound, on IKZF3, the “Degradation of substrate protein IKZF3 (substrate protein remaining %)” value is listed as “A (0%≤substrate protein remaining %≤80%)”. The “Degradation of substrate protein CK1α (substrate protein remaining %)” value on CK1α is “A (0%≤substrate protein remaining %≤80%)”.
